Experimental data taken from US8642566B2, “Therapeutic approaches for treating neuroinflammatory conditions” (Pharnext, priority 2009, dated 2014).

How the values were obtained:
[1] = system: MOG-immunized mice developing chronic progressive EAE; experiment: Acute onset EAE study, 28 days after EAE induction (Example 1); type: in vivo, C57BL/6 mice; conditions: day 28; treatment from 3 weeks before EAE induction; clopidogrel oral, mecamylamine subcutaneous minipump; combination vs placebo p value less than 0.05
[2] = system: MOG-immunized mice developing chronic progressive EAE; experiment: Chronic phase EAE study, 70 days post EAE induction (Example 1); type: in vivo, C57BL/6 mice; conditions: Manova p<0.005; initial mean weights of all groups equal
Description: Prepare the emulsion containing MOG35-55 stock, PBS and CFA. The volume of MOG35-55 stock=[(The volume of the emulsion)×(1.5 g/L)]/[(3×10-3 mol/L)×(2581.6 g/mol)]; the volume of PBS=[(The volume of the emulsion)/2]−(The volume of MOG35-55 stock); The volume of CFA=(The volume of the emulsion)/2. The emulsion is prepared by diluting the MOG35-55 stock with PBS and then mix equal volumes of this diluent and CFA. The final concentration of MOG35-55 is 300 μg per 200 μL emulsion for each mouse. Air bubbles should be avoided and the syringe must be kept at 4° C. until injection. Before use the stability of the emulsion is tested by adding one drop into a beaker of water: if the drop remains as a solid clump and slowly dissipates, then the emulsion is stable and may be injected.
Mice are anesthetized with 2% Pentobarbital sodium (i.p injection, 70˜90 μL/mouse) and kept warm under infrared lamp. Injection of 200 ng Pertussis toxin in 200 μL PBS/mouse is performed (i.v.; tail vein) using a 1-mL syringe with 0.4-mm needle. The previously described emulsion is subcutaneously administered with a 1-mL syringe with 0.4-mm needle.
Mice are kept warm under infrared lamp to perform injection of 200 ng Pertussis toxin in 200 μL PBS via i.v. (tail vein) route, as described for MOG35-55 injection.
A chronic phase study is run for 70 days post EAE induction. […]

[3] = system: mouse EAE model (MOG35-55 immunization); experiment: Mouse EAE model, acute oral treatment Day 14 to Day 28, global clinical score (Example 2); type: in vivo, C57L/6J female mice; conditions: Day 16 to Day 28 after immunization, 1/60 of usual therapeutic doses (clopidogrel hydrogen sulfate 270 μg/kg/day, mecamylamine hydrochloride 9 μg/kg/day), vs EAE mice without treatment
Description: In this experiment, both drugs are equally diluted to ultra-low doses corresponding to 1/60 of their usual therapeutic doses, and importantly, both are administered orally. Protocols for EAE induction and clinical score calculations in this experiment are slightly modified and are described in detail below:
C57L/6J female mice (8 weeks old) are purchased from Janvier (France); after two weeks of habituation, female mice (10 weeks old) develop chronic paralysis after immunization with MOG (Myelin Oligodendrocyte Glycoprotein) peptide. The experimental encephalomyelitis is induced with the Hooke Kit MOG35-55/CFA Emulsion PTX (Pertussis toxin) for EAE Induction (EK-0110, EK-0115; Hooke laboratories). The control kit is CK-0115 (Hooke laboratories).
The day 0, two subcutaneous injections of 0.1 ml each are performed; one on upper back of the mouse and one in lower back. Each injection contains 100 μg of MOG35-55 peptide ([sequence]), 200 μg of inactivated Mycobacterium tuberculosis H37Ra and is emulsified in Complete Freund's adjuvant (CFA) (Hooke laboratories). The emulsion provides antigen needed to expand and differentiate MOG-specific autoimmune T cells. […]
The global score for each animal is determined by the addition of all the above mentioned categories. […]

Structure (SMILES)	Histological examination: perivascular lymphocyte infiltrate inflammation (perivascular cuffing) in spinal section [1]	Weight gain, Post Hoc comparison with control group treated with placebo (vehicle) [2]	Global clinical score (tail, hind limb, fore limb and bladder scores) [3]
COC(=O)[C@H](c1ccccc1Cl)N1CCc2sccc2C1 [clopidogrel]	different degrees of perivascular inflammation	different from the control group	no positive effects
CNC1(C)C2CCC(C2)C1(C)C (stereo not drawn) [mecamylamine]	different degrees of perivascular inflammation	different from the control group	no positive effects
